According to patent US5010067A, “Triglyceride-water emulsion pharmaceutical vehicles” (Sandoz Pharmaceuticals Corp., priority 1988, dated 1991):
“Also recorded” adds a separate entry of the source. Counter-ions that a name gives are not always drawn.

Key:
rat tail [1] = experiment: Detergent-like effects at tail vein injection site in rats, repeated daily injection for 14 days (compound in Emulsion A); type: in vivo; conditions: for Sloughing of tissue, incidence: mild sloughing in various areas (Compound A) / small dots at injection sites (Compound B); for Ischemia, incidence: by/at 14 days; for Average gain in body weight: over 14 days; for Edema, incidence: tail vein, by/at day 14; for Edema, day of onset: majority of rats; for Edema, day of onset in single late rat: one rat; for Overall damage to the rat tail / negative effects: compared with other compound or other vehicles
Protocol: A commercial 10% intravenous fat emulsion having 5% safflower oil and 5% soybean oil, USP, i.e. "Liposyn II 10%" described above, hereinafter referred to as Emulsion A, is employed.
The test compound is suspended or dissolved in Emulsion A at a concentration of 28 mg/ml. Probe sonification is employed to make a homogenous drug suspension or solution.
Rats are injected with 0.1 ml/100 g body weight. Control animals are injected with Emulsion A alone at the same volume as drug treated rats.
Each rat is placed in a plastic restraining tube, leaving its tail exposed A warm water soaked gauze pad is placed on the tail for approximately 10 seconds to help dilate the tail vein. A 25 gauge needle attached to a 1 cc tuberculine syringe is used to administer drug/control to the rat. To assure proper administration of doses, a negative pressure is achieved by drawing back slowly on the plunger of the syringe. A flashback of blood into the hub of the needle indicates proper placement of the needle, and drug/control is then administered slowly to the rat. After administration of dose, needle is removed and pressure with a clean gauze pad applied for approximately 10 seconds to keep fluid from flowing out of injection site. The rat is returned to its cage and procedure repeated for each animal.
Body weight and visual observations for detergent-like effects are recorded each day and at the end of the 14 day period; particularly for edema, ischemia and necrosis.
Tests were run to observe detergent-like effects on laboratory rats using as active ingredient either 3-[2-[octadecylaminocarbonyloxymethyl-tetrahydrofuran-2-ylmethoxy)-hydroxy-phosphinyloxy]-ethane]-thiazolium hydroxide inner salt-4-oxide (as Compound A) or cis-1-(2-[hydroxy[[tetrahydro-5-[(octadecylaminocarbonyl)oxy]methyl]furan- 2-yl]methoxyphosphinyloxy]ethyl)-quinolinium hydroxide, inner salt-4-oxide (as Compound B). Each of Compounds A and B was administered to a group of 5 rats.
Each of the two compounds were tested at 28 mg/kg suspended in the 10% intravenous fat emulsion. Rats were injected once a day for 14 consecutive days and monitored for the aforementioned signs of tail morbidity.

rat tail [2] = experiment: Previous tests: injection of standard water-based mixtures in rats' tails; type: in vivo; conditions: for Test halted because of detergent-like effects around the injection site: standard water-based mixtures, 25 mg/kg and over; for Reduction of detergent-like effects by adjustment of pH, or inclusion of buffers or serum albumin: water-based mixtures
[3] = 28 mg/kg once daily in Emulsion A, 14 days
[4] = 28 mg/kg once daily in Emulsion A

Edema, severity (rat tail [1]; [3]) | Edema, day of onset (rat tail [1]; [4]) [days] | Edema, day of onset in single late rat (rat tail [1]; [4]) [days] | Period for which tests could be run (rat tail [1]; in Emulsion A) [days] | Test halted because of detergent-like effects around the injection site (rat tail [2]) | Reduction of detergent-like effects by adjustment of pH, or inclusion of buffers or serum albumin (rat tail [2]) | SMILES | Ischemia, severity (rat tail [1]; [3]) | Necrosis, incidence (rat tail [1]; [3]) | Necrosis, severity / lesion size (rat tail [1]; [3]) | Slightly larger area of sloughing, incidence (rat tail [1]; [3]) | Sloughing of tissue, incidence (rat tail [1]; [3]) | Ischemia, incidence (rat tail [1]; [4]) | Average gain in body weight (rat tail [1]; [4]) [%] | Edema, incidence (rat tail [1]; [4]) | Overall damage to the rat tail / negative effects (rat tail [1]; in Emulsion A, 14 days) | Animals having necrotic tissue (rat tail [1]; in Emulsion A, 14 days) [%] | Animals with sloughing of necrotic tissue (rat tail [1]; in Emulsion A, 14 days) [%]
mild edema | ~4 | 10 | 14 | forced to halt after only a few days | had not proven satisfactory | CCCCCCCCCCCCCCCCCCNC(=O)OC[C@H]1CC[C@@H](COP(=O)([O-])OCC[n+]2cccc3ccccc32)O1 (relative stereo) [Compound B, cis-1-(2-[hydroxy[[tetrahydro-5-[(octadecylaminocarbonyl)oxy]methyl]furan-2-yl]methoxyphosphinyloxy]ethyl)-quinolinium hydroxide, inner salt-4-oxide] | small areas of ischemia; also recorded: mild edema and ischemia | 5/5 | small areas of ischemia and necrosis; also recorded: very small areas; also recorded: necrotic lesions being much smaller | 1/5 | 2/5 | 5/5 | 29.6 | 5/5 | least amount of damage to the rat tail; also recorded: visibly better | – | –
moderate edema | 2 to 4 | 13 | 14 | forced to halt after only a few days | had not proven satisfactory | CCCCCCCCCCCCCCCCCCNC(=O)OCC1(COP(=O)([O-])OCC[n+]2ccsc2)CCCO1 (stereo not drawn) [Compound A] | moderate edema and ischemia | All rats had mottled necrotic areas | – | – | 3/4 | All rats displayed ischemia of entire tail | 24 | All rats showed some amount of edema | greatly reduced the negative effects | 100 | 75
